# Laboratory results as given in ChEMBL document CHEMBL5126592, “Design, synthesis and activity against drug-resistant bacteria evaluation of C-20, C-23 modified 5-O-mycaminosyltylonolide derivatives” (Eur J Med Chem, 2022).
# Assays:
# Format in all cases: functional
# Settings in all cases: time 16-20 hrs
# Staphylococcus aureus = test: Antibacterial activity against Staphylococcus aureus ATCC 25923 incubated for 16 to 20 hrs by broth microdilution method
# Escherichia coli = test: Antibacterial activity against Escherichia coli ATCC 25922 incubated for 16 to 20 hrs by broth microdilution method
# Cronobacter sakazakii = test: Antibacterial activity against Cronobacter sakazakii ATCC 29544 incubated for 16 to 20 hrs by broth microdilution method
# Klebsiella pneumoniae = test: Antibacterial activity against Klebsiella pneumoniae ATCC 13883 incubated for 16 to 20 hrs by broth microdilution method
Compound,MIC (Staphylococcus aureus),MIC (Escherichia coli),MIC (Cronobacter sakazakii),MIC (Klebsiella pneumoniae)
CC[C@H]1OC(=O)C[C@@H](O)[C@H](C)[C@@H](O[C@@H]2O[C@H](C)[C@@H](O)[C@H](N(C)C)[C@H]2O)[C@@H](CCN(Cc2ccc(N(C)C)cc2)Cc2cn(-c3cnc4ccccc4c3)nn2)C[C@@H](C)C(=O)/C=C/C(C)=C/[C@@H]1CN1CCCCC1,0.5 µg/mL,4 µg/mL,8 µg/mL,8 µg/mL
CC[C@H]1OC(=O)C[C@@H](O)[C@H](C)[C@@H](O[C@@H]2O[C@H](C)[C@@H](O)[C@H](N(C)C)[C@H]2O)[C@@H](CCN(Cc2ccccc2)Cc2cn(-c3cnc4ccccc4c3)nn2)C[C@@H](C)C(=O)/C=C/C(C)=C/[C@@H]1CN1CCC(O)CC1,2 µg/mL,16 µg/mL,16 µg/mL,16 µg/mL
CC[C@H]1OC(=O)C[C@@H](O)[C@H](C)[C@@H](O[C@@H]2O[C@H](C)[C@@H](O)[C@H](N(C)C)[C@H]2O)[C@@H](CCN(Cc2ccc(N(C)C)cc2)Cc2cn(-c3cnc4ccccc4c3)nn2)C[C@@H](C)C(=O)/C=C/C(C)=C/[C@@H]1CN1CCC(O)CC1,2 µg/mL,16 µg/mL,32 µg/mL,16 µg/mL
CC[C@H]1OC(=O)C[C@@H](O)[C@H](C)[C@@H](O[C@@H]2O[C@H](C)[C@@H](O)[C@H](N(C)C)[C@H]2O)[C@@H](CCN(Cc2ccc(N(C)C)cc2)Cc2cn(-c3cnc4ccccc4c3)nn2)C[C@@H](C)C(=O)/C=C/C(C)=C/[C@@H]1CN(CC)CC,0.5 µg/mL,4 µg/mL,16 µg/mL,8 µg/mL
CC[C@H]1OC(=O)C[C@@H](O)[C@H](C)[C@@H](O[C@@H]2O[C@H](C)[C@@H](O)[C@H](N(C)C)[C@H]2O)[C@@H](CCN(Cc2ccc(C(F)(F)F)cc2)Cc2cn(-c3cnc4ccccc4c3)nn2)C[C@@H](C)C(=O)/C=C/C(C)=C/[C@@H]1CN1CCCCCC1,1 µg/mL,4 µg/mL,8 µg/mL,4 µg/mL
CC[C@H]1OC(=O)C[C@@H](O)[C@H](C)[C@@H](O[C@@H]2O[C@H](C)[C@@H](O)[C@H](N(C)C)[C@H]2O)[C@@H](CCN(Cc2ccc(O)c(OC)c2)Cc2cn(-c3cnc4ccccc4c3)nn2)C[C@@H](C)C(=O)/C=C/C(C)=C/[C@@H]1CO,0.5 µg/mL,16 µg/mL,16 µg/mL,16 µg/mL
CC[C@H]1OC(=O)C[C@@H](O)[C@H](C)[C@@H](O[C@@H]2O[C@H](C)[C@@H](O)[C@H](N(C)C)[C@H]2O)[C@@H](CCN(Cc2ccc(C(F)(F)F)cc2)Cc2cn(-c3cnc4ccccc4c3)nn2)C[C@@H](C)C(=O)/C=C/C(C)=C/[C@@H]1CN1CCC(O)CC1,2 µg/mL,16 µg/mL,32 µg/mL,32 µg/mL
CC[C@H]1OC(=O)C[C@@H](O)[C@H](C)[C@@H](O[C@@H]2O[C@H](C)[C@@H](O)[C@H](N(C)C)[C@H]2O)[C@@H](CCN(Cc2cn(-c3cnc4ccccc4c3)nn2)Cc2c(OC)cc(OC)cc2OC)C[C@@H](C)C(=O)/C=C/C(C)=C/[C@@H]1CO,0.5 µg/mL,16 µg/mL,32 µg/mL,32 µg/mL
CC[C@H]1OC(=O)C[C@@H](O)[C@H](C)[C@@H](O[C@@H]2O[C@H](C)[C@@H](O)[C@H](N(C)C)[C@H]2O)[C@@H](CCN(Cc2ccccc2)Cc2cn(-c3cnc4ccccc4c3)nn2)C[C@@H](C)C(=O)/C=C/C(C)=C/[C@@H]1CI,2 µg/mL,32 µg/mL,32 µg/mL,32 µg/mL
CC[C@H]1OC(=O)C[C@@H](O)[C@H](C)[C@@H](O[C@@H]2O[C@H](C)[C@@H](O)[C@H](N(C)C)[C@H]2O)[C@@H](CCN(Cc2cn(-c3cnc4ccccc4c3)nn2)Cc2ccc(CO)o2)C[C@@H](C)C(=O)/C=C/C(C)=C/[C@@H]1CO,0.5 µg/mL,32 µg/mL,32 µg/mL,32 µg/mL
CC[C@H]1OC(=O)C[C@@H](O)[C@H](C)[C@@H](O[C@@H]2O[C@H](C)[C@@H](O)[C@H](N(C)C)[C@H]2O)[C@@H](CCN(Cc2cn(-c3cnc4ccccc4c3)nn2)Cc2ccco2)C[C@@H](C)C(=O)/C=C/C(C)=C/[C@@H]1CN1CCCCCCC1,1 µg/mL,4 µg/mL,32 µg/mL,8 µg/mL
CC[C@H]1OC(=O)C[C@@H](O)[C@H](C)[C@@H](O[C@@H]2O[C@H](C)[C@@H](O)[C@H](N(C)C)[C@H]2O)[C@@H](CCN(Cc2cn(-c3cnc4ccccc4c3)nn2)Cc2ccco2)C[C@@H](C)C(=O)/C=C/C(C)=C/[C@@H]1CN1CC(C)CC(C)C1 (stereo partly drawn),2 µg/mL,16 µg/mL,16 µg/mL,16 µg/mL
CC[C@H]1OC(=O)C[C@@H](O)[C@H](C)[C@@H](O[C@@H]2O[C@H](C)[C@@H](O)[C@H](N(C)C)[C@H]2O)[C@@H](CCN(Cc2ccc(C(F)(F)F)cc2)Cc2cn(-c3cnc4ccccc4c3)nn2)C[C@@H](C)C(=O)/C=C/C(C)=C/[C@@H]1CI,4 µg/mL,32 µg/mL,32 µg/mL,32 µg/mL
CC[C@H]1OC(=O)C[C@@H](O)[C@H](C)[C@@H](O[C@@H]2O[C@H](C)[C@@H](O)[C@H](N(C)C)[C@H]2O)[C@@H](CCN(C)Cc2cn(-c3cnc4ccccc4c3)nn2)C[C@@H](C)C(=O)/C=C/C(C)=C/[C@@H]1CN1CC(C)CC(C)C1 (stereo partly drawn),2 µg/mL,8 µg/mL,16 µg/mL,8 µg/mL
CC[C@H]1OC(=O)C[C@@H](O)[C@H](C)[C@@H](O[C@@H]2O[C@H](C)[C@@H](O)[C@H](N(C)C)[C@H]2O)[C@@H](CCN(Cc2ccc(N(C)C)cc2)Cc2cn(-c3cnc4ccccc4c3)nn2)C[C@@H](C)C(=O)/C=C/C(C)=C/[C@@H]1CN1CC(C)CC(C)C1 (stereo partly drawn),2 µg/mL,8 µg/mL,32 µg/mL,32 µg/mL
CC[C@H]1OC(=O)C[C@@H](O)[C@H](C)[C@@H](O[C@@H]2O[C@H](C)[C@@H](O)[C@H](N(C)C)[C@H]2O)[C@@H](CCN(Cc2ccccc2)Cc2cn(-c3cnc4ccccc4c3)nn2)C[C@@H](C)C(=O)/C=C/C(C)=C/[C@@H]1CN(CC)CC,0.25 µg/mL,8 µg/mL,8 µg/mL,8 µg/mL
CC[C@H]1OC(=O)C[C@@H](O)[C@H](C)[C@@H](O[C@@H]2O[C@H](C)[C@@H](O)[C@H](N(C)C)[C@H]2O)[C@@H](CCN(Cc2cn(-c3cnc4ccccc4c3)nn2)Cc2nccs2)C[C@@H](C)C(=O)/C=C/C(C)=C/[C@@H]1CO,0.5 µg/mL,32 µg/mL,32 µg/mL,32 µg/mL
CC[C@H]1OC(=O)C[C@@H](O)[C@H](C)[C@@H](O[C@@H]2O[C@H](C)[C@@H](O)[C@H](N(C)C)[C@H]2O)[C@@H](CCN(Cc2ccc(N(C)C)cc2)Cc2cn(-c3cnc4ccccc4c3)nn2)C[C@@H](C)C(=O)/C=C/C(C)=C/[C@@H]1CN1CCCCCCC1,0.5 µg/mL,8 µg/mL,32 µg/mL,16 µg/mL
CC[C@H]1OC(=O)C[C@@H](O)[C@H](C)[C@@H](O[C@@H]2O[C@H](C)[C@@H](O)[C@H](N(C)C)[C@H]2O)[C@@H](CCN(Cc2cn(-c3cnc4ccccc4c3)nn2)Cc2cccs2)C[C@@H](C)C(=O)/C=C/C(C)=C/[C@@H]1CO,0.125 µg/mL,16 µg/mL,32 µg/mL,16 µg/mL
CC[C@H]1OC(=O)C[C@@H](O)[C@H](C)[C@@H](O[C@@H]2O[C@H](C)[C@@H](O)[C@H](N(C)C)[C@H]2O)[C@@H](CCN(Cc2cn(-c3cnc4ccccc4c3)nn2)Cc2ccco2)C[C@@H](C)C(=O)/C=C/C(C)=C/[C@@H]1CI,2 µg/mL,32 µg/mL,16 µg/mL,16 µg/mL
CC[C@H]1OC(=O)C[C@@H](O)[C@H](C)[C@@H](O[C@@H]2O[C@H](C)[C@@H](O)[C@H](N(C)C)[C@H]2O)[C@@H](CCN(Cc2ccc(OC)cc2)Cc2cn(-c3cnc4ccccc4c3)nn2)C[C@@H](C)C(=O)/C=C/C(C)=C/[C@@H]1CO,0.25 µg/mL,8 µg/mL,32 µg/mL,16 µg/mL
CC[C@H]1OC(=O)C[C@@H](O)[C@H](C)[C@@H](O[C@@H]2O[C@H](C)[C@@H](O)[C@H](N(C)C)[C@H]2O)[C@@H](CCN(Cc2ccsc2)Cc2cn(-c3cnc4ccccc4c3)nn2)C[C@@H](C)C(=O)/C=C/C(C)=C/[C@@H]1CO,0.25 µg/mL,16 µg/mL,32 µg/mL,16 µg/mL
CCCN(CCC)C[C@H]1/C=C(C)/C=C/C(=O)[C@H](C)C[C@H](CCN(C)Cc2cn(-c3cnc4ccccc4c3)nn2)[C@H](O[C@@H]2O[C@H](C)[C@@H](O)[C@H](N(C)C)[C@H]2O)[C@@H](C)[C@H](O)CC(=O)O[C@@H]1CC,0.25 µg/mL,4 µg/mL,8 µg/mL,4 µg/mL
CC[C@H]1OC(=O)C[C@@H](O)[C@H](C)[C@@H](O[C@@H]2O[C@H](C)[C@@H](O)[C@H](N(C)C)[C@H]2O)[C@@H](CCN(Cc2ccc(C(F)(F)F)cc2)Cc2cn(-c3cnc4ccccc4c3)nn2)C[C@@H](C)C(=O)/C=C/C(C)=C/[C@@H]1CO,0.25 µg/mL,8 µg/mL,16 µg/mL,32 µg/mL
CC[C@H]1OC(=O)C[C@@H](O)[C@H](C)[C@@H](O[C@@H]2O[C@H](C)[C@@H](O)[C@H](N(C)C)[C@H]2O)[C@@H](CCN(Cc2ccccc2)Cc2cn(-c3cnc4ccccc4c3)nn2)C[C@@H](C)C(=O)/C=C/C(C)=C/[C@@H]1CN1CCCCCC1,1 µg/mL,4 µg/mL,8 µg/mL,4 µg/mL
CC[C@H]1OC(=O)C[C@@H](O)[C@H](C)[C@@H](O[C@@H]2O[C@H](C)[C@@H](O)[C@H](N(C)C)[C@H]2O)[C@@H](CCN(Cc2cncnc2)Cc2cn(-c3cnc4ccccc4c3)nn2)C[C@@H](C)C(=O)/C=C/C(C)=C/[C@@H]1CO,0.5 µg/mL,32 µg/mL,32 µg/mL,32 µg/mL
CC[C@H]1OC(=O)C[C@@H](O)[C@H](C)[C@@H](O[C@@H]2O[C@H](C)[C@@H](O)[C@H](N(C)C)[C@H]2O)[C@@H](CCN(Cc2cn(-c3cnc4ccccc4c3)nn2)Cc2ccco2)C[C@@H](C)C(=O)/C=C/C(C)=C/[C@@H]1CN1CCCCCC1,1 µg/mL,4 µg/mL,8 µg/mL,4 µg/mL
